Results as given in the supplement of paper PMC13207355.
Structures can show the parent of a compound that is named as a salt.

Key:
Conditions in all cases: exposure time: 72 h
E31 [1] = patient-derived glioblastoma stem cells of proneural subtype; assay: surviving fraction (nuclei count normalised to DMSO); higher = more cells surviving (less toxic)
E57 [2] = patient-derived glioblastoma stem cells of mesenchymal subtype; assay: as above
E34 [3] = patient-derived glioblastoma stem cells of proneural subtype; assay: as above
E21 [4] = patient-derived glioblastoma stem cells of mesenchymal subtype; assay: as above
E28 [5] = patient-derived glioblastoma stem cells of classical subtype; assay: as above
E13 [6] = patient-derived glioblastoma stem cells of classical subtype; assay: as above
FT3469 [7] = normal neural stem cell line; assay: as above
E31 [8] = assay: phenotypic distance (Euclidean, principal components) from DMSO controls (arbitrary units); higher = stronger morphological change
E57 [9] = assay: as above
E34 [10] = assay: as above
E21 [11] = assay: as above
E28 [12] = assay: as above
E13 [13] = assay: as above
FT3469 [14] = assay: as above
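Wherever phenotypic distance (Euclidean, principal components) from DMSO controls is given: cell Painting imaging in 384-well plates, CellProfiler features reduced to at least 20 principal components, Euclidean distance versus same-plate DMSO vehicle wells (0.1% v/v), median over six images per well.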
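Wherever surviving fraction (nuclei count normalised to DMSO) is given: nuclei counted by high-content imaging of Hoechst-stained cells in laminin-coated 384-well plates, relative to 0.1% DMSO vehicle wells, with staurosporine as cell-death control.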

CNCCCC12CCC(c3ccccc31)c1ccccc12 [Maprotiline hydrochloride]
Conditions	phenotypic distance	surviving fraction
E13 [6], 4.1 nM	–	0.984
E13 [6], 12.3 nM	–	1.05
E13 [6], 37 nM	–	0.987
E13 [6], 111.1 nM	–	1.05
E13 [6], 333.3 nM	–	1.1
E13 [6], 1000 nM	–	1.05
E13 [6], 3000 nM	–	0.911
E13 [13], 4.1 nM	0.553	–
E13 [13], 12.3 nM	0.296	–
E13 [13], 37 nM	0.356	–
E13 [13], 111.1 nM	0.55	–
E13 [13], 333.3 nM	0.608	–
E13 [13], 1000 nM	0.471	–
E13 [13], 3000 nM	0.392	–
E21 [4], 4.1 nM	–	1.04
E21 [4], 12.3 nM	–	0.944
E21 [4], 37 nM	–	0.982
E21 [4], 111.1 nM	–	1.06
E21 [4], 333.3 nM	–	1.02
E21 [4], 1000 nM	–	1.03
E21 [4], 3000 nM	–	1.06
E21 [11], 4.1 nM	0.674	–
E21 [11], 12.3 nM	1.04	–
E21 [11], 37 nM	0.745	–
E21 [11], 111.1 nM	1.03	–
E21 [11], 333.3 nM	0.9	–
E21 [11], 1000 nM	0.798	–
E21 [11], 3000 nM	0.546	–
E28 [5], 4.1 nM	–	1.23
E28 [5], 12.3 nM	–	0.929
E28 [5], 37 nM	–	0.979
E28 [5], 111.1 nM	–	1.21
E28 [5], 333.3 nM	–	1.13
E28 [5], 1000 nM	–	0.951
E28 [5], 3000 nM	–	0.979
E28 [12], 4.1 nM	0.756	–
E28 [12], 12.3 nM	0.57	–
E28 [12], 37 nM	0.744	–
E28 [12], 111.1 nM	0.651	–
E28 [12], 333.3 nM	0.753	–
E28 [12], 1000 nM	0.525	–
E28 [12], 3000 nM	0.615	–
E31 [1], 4.1 nM	–	1.07
E31 [1], 12.3 nM	–	1.06
E31 [1], 37 nM	–	1.02
E31 [1], 111.1 nM	–	0.859
E31 [1], 333.3 nM	–	1.18
E31 [1], 1000 nM	–	1.05
E31 [1], 3000 nM	–	1.01
E31 [8], 4.1 nM	0.322	–
E31 [8], 12.3 nM	0.404	–
E31 [8], 37 nM	0.529	–
E31 [8], 111.1 nM	0.826	–
E31 [8], 333.3 nM	0.77	–
E31 [8], 1000 nM	0.546	–
E31 [8], 3000 nM	0.55	–
E34 [3], 4.1 nM	–	1.04
E34 [3], 12.3 nM	–	0.869
E34 [3], 37 nM	–	0.875
E34 [3], 111.1 nM	–	1.01
E34 [3], 333.3 nM	–	1.02
E34 [3], 1000 nM	–	0.997
E34 [3], 3000 nM	–	1.07
E34 [10], 4.1 nM	0.824	–
E34 [10], 12.3 nM	0.524	–
E34 [10], 37 nM	0.568	–
E34 [10], 111.1 nM	1.03	–
E34 [10], 333.3 nM	0.644	–
E34 [10], 1000 nM	1.11	–
E34 [10], 3000 nM	0.788	–
E57 [2], 4.1 nM	–	1.06
E57 [2], 12.3 nM	–	1.12
E57 [2], 37 nM	–	1.09
E57 [2], 111.1 nM	–	1.1
E57 [2], 333.3 nM	–	0.986
E57 [2], 1000 nM	–	0.93
E57 [2], 3000 nM	–	1.09
E57 [9], 4.1 nM	0.339	–
E57 [9], 12.3 nM	0.804	–
E57 [9], 37 nM	0.81	–
E57 [9], 111.1 nM	0.882	–
E57 [9], 333.3 nM	0.422	–
E57 [9], 1000 nM	0.498	–
E57 [9], 3000 nM	0.628	–
FT3469 [7], 4.1 nM	–	1.09
FT3469 [7], 12.3 nM	–	1.18
FT3469 [7], 37 nM	–	1.3
FT3469 [7], 111.1 nM	–	1.07
FT3469 [7], 333.3 nM	–	0.901
FT3469 [7], 1000 nM	–	1.16
FT3469 [7], 3000 nM	–	0.869
FT3469 [14], 4.1 nM	0.707	–
FT3469 [14], 12.3 nM	0.982	–
FT3469 [14], 37 nM	0.677	–
FT3469 [14], 111.1 nM	1.1	–
FT3469 [14], 333.3 nM	0.895	–
FT3469 [14], 1000 nM	1.08	–
FT3469 [14], 3000 nM	0.56	–

COC(=O)C1=C(C)NC(C)=C(C(=O)OCC(C)C)C1c1ccccc1[N+](=O)[O-] (stereo unspecified) [Nisoldipine]
Conditions	phenotypic distance	surviving fraction
E13 [6], 4.1 nM	–	0.894
E13 [6], 12.3 nM	–	1.08
E13 [6], 37 nM	–	0.924
E13 [6], 111.1 nM	–	0.974
E13 [6], 333.3 nM	–	0.947
E13 [6], 1000 nM	–	0.946
E13 [6], 3000 nM	–	0.883
E13 [13], 4.1 nM	0.597	–
E13 [13], 12.3 nM	0.435	–
E13 [13], 37 nM	0.491	–
E13 [13], 111.1 nM	3.02	–
E13 [13], 333.3 nM	1.31	–
E13 [13], 1000 nM	1.21	–
E13 [13], 3000 nM	1.2	–
E21 [4], 4.1 nM	–	0.82
E21 [4], 12.3 nM	–	0.905
E21 [4], 37 nM	–	0.945
E21 [4], 111.1 nM	–	0.892
E21 [4], 333.3 nM	–	0.945
E21 [4], 1000 nM	–	0.942
E21 [4], 3000 nM	–	0.857
E21 [11], 4.1 nM	0.832	–
E21 [11], 12.3 nM	0.907	–
E21 [11], 37 nM	1.12	–
E21 [11], 111.1 nM	1.2	–
E21 [11], 333.3 nM	0.961	–
E21 [11], 1000 nM	0.669	–
E21 [11], 3000 nM	1.16	–
E28 [5], 4.1 nM	–	0.944
E28 [5], 12.3 nM	–	0.957
E28 [5], 37 nM	–	0.921
E28 [5], 111.1 nM	–	0.86
E28 [5], 333.3 nM	–	0.843
E28 [5], 1000 nM	–	0.972
E28 [5], 3000 nM	–	0.9
E28 [12], 4.1 nM	0.647	–
E28 [12], 12.3 nM	0.706	–
E28 [12], 37 nM	1.08	–
E28 [12], 111.1 nM	0.981	–
E28 [12], 333.3 nM	0.997	–
E28 [12], 1000 nM	0.908	–
E28 [12], 3000 nM	0.792	–
E31 [1], 4.1 nM	–	0.972
E31 [1], 12.3 nM	–	0.914
E31 [1], 37 nM	–	0.886
E31 [1], 111.1 nM	–	0.892
E31 [1], 333.3 nM	–	0.949
E31 [1], 1000 nM	–	0.996
E31 [1], 3000 nM	–	0.938
E31 [8], 4.1 nM	0.922	–
E31 [8], 12.3 nM	1.01	–
E31 [8], 37 nM	1.26	–
E31 [8], 111.1 nM	0.944	–
E31 [8], 333.3 nM	0.976	–
E31 [8], 1000 nM	1.03	–
E31 [8], 3000 nM	1.31	–
E34 [3], 4.1 nM	–	0.949
E34 [3], 12.3 nM	–	0.965
E34 [3], 37 nM	–	1.04
E34 [3], 111.1 nM	–	0.931
E34 [3], 333.3 nM	–	0.853
E34 [3], 1000 nM	–	0.959
E34 [3], 3000 nM	–	0.955
E34 [10], 4.1 nM	2	–
E34 [10], 12.3 nM	0.511	–
E34 [10], 37 nM	0.835	–
E34 [10], 111.1 nM	0.542	–
E34 [10], 333.3 nM	0.889	–
E34 [10], 1000 nM	0.614	–
E34 [10], 3000 nM	1.06	–
E57 [2], 4.1 nM	–	0.904
E57 [2], 12.3 nM	–	0.985
E57 [2], 37 nM	–	0.923
E57 [2], 111.1 nM	–	0.969
E57 [2], 333.3 nM	–	0.929
E57 [2], 1000 nM	–	1.07
E57 [2], 3000 nM	–	0.96
E57 [9], 4.1 nM	0.873	–
E57 [9], 12.3 nM	0.508	–
E57 [9], 37 nM	0.494	–
E57 [9], 111.1 nM	0.633	–
E57 [9], 333.3 nM	0.615	–
E57 [9], 1000 nM	0.552	–
E57 [9], 3000 nM	0.478	–
FT3469 [7], 4.1 nM	–	0.965
FT3469 [7], 12.3 nM	–	0.938
FT3469 [7], 37 nM	–	1.04
FT3469 [7], 111.1 nM	–	0.966
FT3469 [7], 333.3 nM	–	0.965
FT3469 [7], 1000 nM	–	0.942
FT3469 [7], 3000 nM	–	0.896
FT3469 [14], 4.1 nM	0.816	–
FT3469 [14], 12.3 nM	1.12	–
FT3469 [14], 37 nM	0.632	–
FT3469 [14], 111.1 nM	0.827	–
FT3469 [14], 333.3 nM	1.05	–
FT3469 [14], 1000 nM	1.4	–
FT3469 [14], 3000 nM	0.987	–
